We go through nine compounds from US20220273716A1, “POPULATIONS OF NATURAL KILLER CELLS COMPRISING A CD38 CHIMERIC ANTIGEN RECEPTOR” (Celularity Inc., priority 2019, published 2022).

Molecules are shown by their SMILES. Entries after “also recorded” stand apart in the source; their conditions may differ. Where two headings read alike, the source gives them in different places.

The subject of series [1] is CD34 cells. In words: CD34 cell expansion at Day 14 of the culture. It is filed as cell-based, human. As to conditions: compound 10 μM. As for the experimental part: (§1) For biological testing, the compounds were provided to culture to evaluate their effects on NK cell expansion and differentiation. Specifically, donors of CD34+ cells (StemCell Technology) were thawed and expanded in vitro following NK culture protocol. During the first 14 days of the culture, each CRL compounds was dissolved in DMSO and added to the culture at 10 μM concentration. SR1 (at 10 μM) served as a positive control compound, while DMSO alone without any compound served as a negative control. At the end of the culture on Day 35, cell expansion, natural killer (NK) cell differentiation and cytotoxicity of the cells against K562 tumor cell line were characterized. Due to the large number of the compounds, the testing was performed in two experiments, CRL1-11 and CRL 12-22. The same donors were used for each experiment. Positive and negative controls were also included in both experiments.

The subject of series [2] is CD34+ cells. The series is described as follows: NK cell expansion from CD34+ cells in three-stage culture with compound. Format: cell-based, human. The settings on record: for expansion, differentiation and cytotoxicity profile versus SR1: PNK-007 culture; for support of NK expansion (and differentiation) / cell expansion compared to SR1: compound 10 μM during first 14 days, Day 35; for cell expansion compared to SR1: SR1 10 μM positive control.
Text: (§2) UCB CD34+ cells were cultivated in presence of cytokines including thrombopoietin, SCF, Flt3 ligand, IL-7, IL-15 and IL-2 for 35 days to produce three-stage NK cells, as described in Example 1. Multi-color flow cytometry was used to determine the phenotypic characteristics of three-stage NK cells.
as §1

The test system of series [3] is CD34+ cells. In words: NK cell differentiation of compound cultured cells (flow cytometry). It is filed as cell-based, human. As to conditions: compared to SR1.
Text: as §2, §1

The test system of series [4] is K562 tumor cells. In words: Cytotoxicity assay of compound cultured cells against K562 tumor cells. Format: cell-based. As to conditions: 10:1 E:T ratio, both donors. On the procedure: as §1
Cytotoxicity assay was run using compound cultured cells against K562 tumor cells at 10:1 effector to target ratio (FIG. 5) to evaluate cell functions.

Series [5] concerns multiple myeloma. The settings on record: cited from earlier work.

Regarding `Fc1cncc(-c2nc(NCCc3c[nH]c4ccccc34)c3occc3n2)c1` [CRL19, N-(2-(1H-indol-3-yl)ethyl)-2-(5-fluoropyridin-3-yl)furo[3,2-d]pyrimidin-4-amine], the CD34 cell expansion entry in series [1] was “achieved the highest CD34 cell expansion”. In series [2], the “expansion, differentiation and cytotoxicity profile versus SR1” value was “very similar expansion, differentiation and cytotoxicity profiles as SR1”; the “support of NK expansion (and differentiation)” value (“support … (and differentiation)” for short) is reported as “supported cell expansion the best”.
With `Cc1cncc(-c2nc(NCCc3c[nH]c4ccccc34)c3occc3n2)c1` [CRL20, N-(2-(1H-indol-3-yl)ethyl)-2-(5-methylpyridin-3-yl)furo[3,2-d]pyrimidin-4-amine], the CD34 cell expansion result in series [1] is on record as “achieved the highest CD34 cell expansion”. In series [2], the “expansion, differentiation and cytotoxicity profile versus SR1” value was “very similar expansion, differentiation and cytotoxicity profiles as SR1”; the “support … (and differentiation)” value is reported as “supported cell expansion the best”.
As for `Cc1cncc(-c2nc(NCCc3c[nH]c4ccccc34)c3scc(C(C)C)c3n2)c1` [CRL21, N-(2-(1H-indol-3-yl)ethyl)-7-isopropyl-2-(5-methylpyridin-3-yl)thieno[3,2-d]pyrimidin-4-amine], the “CD56+/CD11a+ subpopulation” value in series [3] is “increased CD56+/CD11a+ subpopulation”. In addition, in series [4], the “killing activity compared to cells cultured with SR1” value is recorded as “increased killing activities”. In addition, in series [2], the “cell expansion compared to SR1” value was “slightly less expansion compared to SR1”.
On to `CCC(C)Nc1cc(-c2cncc(C#N)c2)nc(NCCc2c[nH]c3ccccc23)n1` (stereo not drawn) [CRL7, 5-(2-((2-(1H-indol-3-yl)ethyl)amino)-6-(sec-butylamino)pyrimidin-4-yl)nicotinonitrile], for which the “support … (and differentiation)” value in series [2] was “Except for CRL7 and CRL13, the rest of the compounds all resulted in a NK expansion; also recorded: all the compounds except CRL7 and CRL13 supported PNK-007 expansion and differentiation”.
As for `Nc1cccc2c1CN(C1CCC(=O)NC1=O)C2=O` (stereo not drawn) [lenalidomide, 3-(4′aminoisoindoline-1′-one)-1-piperidine-2,6-dione], the entries for the “ORR (VGPR or better)” value in series [5] (1 year post ASCT) and in series [5] (2 year post ASCT) were 48% and 36%, respectively. Also, the “hazard ratio (TTP, vs placebo)” value in series [5] (95% CI 0.46-0.71) is 0.57. The “median TTP” value in series [5] (not accounting for crossover) is recorded as 57.3 months.
Turning to `N#Cc1cncc(-c2nc(NCCc3c[nH]c4ccccc34)c3occc3n2)c1` [CRL22, 5-(4-((2-(1H-indol-3-yl)ethyl)amino)furo[3,2-d]pyrimidin-2-yl)nicotinonitrile], the CD34 cell expansion entry in series [1] is given as “achieved the highest CD34 cell expansion”. Moreover, in series [2], the “expansion, differentiation and cytotoxicity profile versus SR1” value was “very similar expansion, differentiation and cytotoxicity profiles as SR1”; the “support … (and differentiation)” value was “supported cell expansion the best”.
Consider `CC(C)c1csc2c(NCCc3c[nH]c4ccccc34)nc(-c3cncc(F)c3)nc12` [CRL18, N-(2-(1H-indol-3-yl)ethyl)-2-(5-fluoropyridin-3-yl)-7-isopropylthieno[3,2-d]pyrimidin-4-amine], for which the “CD56+/CD11a+ subpopulation” value in series [3] is “increased CD56+/CD11a+ subpopulation”. Also, the “killing activity compared to cells cultured with SR1” value in series [4] is “increased killing activities”. In addition, the “cell expansion compared to SR1” value in series [2] is on record as “slightly less expansion compared to SR1”.
For `CCC(C)Nc1nc(NCCc2c[nH]c3ccccc23)c2ccccc2n1` (stereo not drawn) [CRL13, N^4-(2-(1H-indol-3-yl)ethyl)-N^2-(sec-butyl)quinazoline-2,4-diamine], in series [2], the “support … (and differentiation)” value was “Except for CRL7 and CRL13, the rest of the compounds all resulted in a NK expansion; also recorded: all the compounds except CRL7 and CRL13 supported PNK-007 expansion and differentiation”.
With `CC(C)c1csc2c(NCCc3c[nH]c4ccccc34)nc(-c3cncc(C#N)c3)nc12` [CRL17, 5-(4-((2-(1H-indol-3-yl)ethyl)amino)-7-isopropylthieno[3,2-d]pyrimidin-2-yl)nicotinonitrile], in series [3], the “CD56+/CD11a+ subpopulation” value was “increased CD56+/CD11a+ subpopulation”. Moreover, in series [4], the “killing activity compared to cells cultured with SR1” value is recorded as “increased killing activities”. Also, the “cell expansion compared to SR1” value in series [2] is recorded as “slightly less expansion compared to SR1”.
